Laboratory results from the OligoGym collection.
Values joined by “and” are separate entries in the source; they are usually repeats but may differ in a detail not shown here. Equal values may be shown once. After the bases stand the sugars from the 5' end (letter, count) and the backbone: PS all phosphorothioate, else s phosphorothioate and o phosphodiester by linkage. HELM strings list units from the 5' end as sugar, base in round brackets, then linkage (d deoxyribose, r ribose, m 2'-O-methyl, p phosphodiester). Methylation of C is not given here. [moe] = 2'-O-(2-methoxyethyl) (MOE); [cEt] = constrained ethyl (cEt); [sp] = phosphorothioate linkage; e = 2'-O-(2-methoxyethyl) (MOE); k = constrained ethyl (cEt); d = 2'-deoxy (DNA)

What was measured:
IRF5 = settings: ASO
HBV = settings: ASO, HepG2, 0.07 µM

Substance	target mRNA inhibition (IRF5; KARPAS-229, 4 µM)	other results
AAGGGCACAGACGCAGG (sugars kdddddddddkekeked, PS)	0%	
AAGGGCACAGCGCAGG (sugars k3 d10 k3, PS)	48% and 42%	
AATGCAACATCCATCA (sugars k3 d10 k3, PS)	0%	
ACATCTCCACATCAGT (sugars k2 d9 e3 k2, PS)	41%	
ACATCTCCACATCAGT (sugars k3 d9 k3 e1, PS)	11%	
ACATCTCCACATCAGT (sugars kkdddddddddkdkdk, PS)	28%	
ACATCTCCACATCAGT (sugars kkkddddddddkekek, PS)	14%	
ACCACTGTGTACCCCA (sugars k3 d10 k3, PS)	75% and 57%	target mRNA inhibition (IRF5; KARPAS-229, 0.44444 µM): 16%; target mRNA inhibition (IRF5; KARPAS-229, 1.33333 µM): 41%; target mRNA inhibition (IRF5; KARPAS-229, 12 µM): 65%
ACCACTGTGTACCCCA (sugars kekdddddddddeekk, PS)	63% and 62%	target mRNA inhibition (IRF5; KARPAS-229, 0.44444 µM): 28%; target mRNA inhibition (IRF5; KARPAS-229, 1.33333 µM): 45%; target mRNA inhibition (IRF5; KARPAS-229, 12 µM): 77%
ACCACTGTGTACCCCA (sugars kkddddddddkekekk, PS)	15%	
ACCACTGTGTACCCCA (sugars kkkdddddddddkeke, PS)	39%	
ACCATTCTATGCCTTT (sugars kkdddddddddkekek, PS)	40%	
ACCATTCTATGCCTTT (sugars kkddddddddkekekk, PS)	0%	
ACCATTCTATGCCTTT (sugars kkkdddddddddkeke, PS)	49%	
ACCATTCTATGCCTTT (sugars kkkddddddddkekek, PS)	15%	
ACCCAATGCAACATCC (sugars k3 d10 k3, PS)	33%	
ACGAGCAAAGGGTGAG (sugars k3 d10 k3, PS)	47%	
ACGAGTTATGGGAAGG (sugars k3 d10 k3, PS)	74% and 73%	target mRNA inhibition (IRF5; KARPAS-229, 0.44444 µM): 50%; target mRNA inhibition (IRF5; KARPAS-229, 1.33333 µM): 54%; target mRNA inhibition (IRF5; KARPAS-229, 12 µM): 81%
ACTGACACAGGCGGAT (sugars k2 d9 e3 k2, PS)	0%	
ACTGACACAGGCGGAT (sugars kkddddddddddkeke, PS)	0%	
ACTGACACAGGCGGAT (sugars kkdddddddddkekek, PS)	0%	
ACTGTATTACCTATAC (sugars k3 d10 k3, PS)	22%	

Substance	target mRNA inhibition (IRF5; KARPAS-229, 4 µM)	other results
AGACTTTTTGCTCTAA (sugars k3 d10 k3, PS)	0%	
AGATGGTGTTATCTCC (sugars kdddddddddkekeke, PS)	0%	
AGCTTGGTCTTGACCT (sugars kddddddddddkekek, PS)	0%	
AGGAAGTGAGTCTCAA (sugars k3 d9 k3 e1, PS)	47%	
AGGAAGTGAGTCTCAA (sugars k3 d10 k3, PS)	42%	
AGGAAGTGAGTCTCAA (sugars kddddddddddkekek, PS)	11%	
AGGAAGTGAGTCTCAA (sugars kkkddddddddkekek, PS)	24%	
AGGAGTGAGACGAGCA (sugars kddddddddddkekek, PS)	37%	
AGGAGTGAGACGAGCA (sugars kdddddddddkekeke, PS)	0%	
AGGAGTGAGACGAGCA (sugars kkddddddddkekekk, PS)	35%	
AGGAGTGAGACGAGCA (sugars kkkddddddddkdkdk, PS)	37%	
AGGTTCTTGGACTCTC (sugars kekdddddddddeekk, PS)	0%	
AGGTTCTTGGACTCTC (sugars kkkdddddddddkeke, PS)	0%	
AGGTTCTTGGACTCTC (sugars kkkddddddddkdkdk, PS)	0%	
AGTCATGGGCGTGAGGC (sugars kkddddddddkekekkd, PS)	17%	
AGTCATGGGCTGAGGC (sugars kddddddddddkekek, PS)	25%	
ATAGGAGTGAGACGAG (sugars k3 d10 k3, PS)	16%	
ATCACCACTGTGTACC (sugars kddddddddddkekek, PS)	0%	
ATCACCACTGTGTACC (sugars kekdddddddddeekk, PS)	0%	
ATCACCACTGTGTACC (sugars kkkdddddddddkeke, PS)	0%	
ATCACCACTGTGTACC (sugars kkkddddddddkdkdk, PS)	0%	
ATGAGTCATGGGCTGA (sugars kdddddddddkekeke, PS)	7%	

Substance	target mRNA inhibition (IRF5; KARPAS-229, 4 µM)	other results
ATGGTGTTATCTCCGT (sugars kddddddddddkekek, PS)	0%	
ATTTCTGCTCCAGGTT (sugars kddddddddddkekek, PS)	39%	
CAATGCAACATCCATC (sugars kdddddddddkekeke, PS)	0%	
CAATGCAACATCCATC (sugars kkddddddddkekekk, PS)	0%	
CAATTTTGCATTCCAT (sugars k3 d10 k3, PS)	52%	
CAATTTTGCATTCCAT (sugars kddddddddddkekek, PS)	21%	
CAATTTTGCATTCCAT (sugars kdddddddddkekeke, PS)	19%	
CACATCTCCACATCAG (sugars k3 d9 k3 e1, PS)	25%	
CACCACTGTGTACCCC (sugars kkddddddddkekekk, PS)	0%	
CACTGACACAGGCGGA (sugars k3 d9 k3 e1, PS)	0%	
CACTGACACAGGCGGA (sugars kdddddddddkekeke, PS)	0%	
CACTGACACAGGCGGA (sugars kkkddddddddkekek, PS)	0%	
CAGGTTCTTGGACTCT (sugars kdddddddddkekeke, PS)	0%	
CAGGTTCTTGGACTCT (sugars kkkdddddddddkeke, PS)	1%	
CATCTCCACATCAGTC (sugars kkddddddddkekekk, PS)	23%	
CATTCCATATACACAC (sugars k2 d9 e3 k2, PS)	21%	
CATTCCATATACACAC (sugars k3 d10 k3, PS)	28%	
CATTCCATATACACAC (sugars kdddddddddkekeke, PS)	7%	
CATTCCATATACACAC (sugars kekdddddddddeekk, PS)	24%	
CATTCCATATACACAC (sugars kkddddddddddkeke, PS)	30%	
CATTCCATATACACAC (sugars kkddddddddkekekk, PS)	17%	
CCAATGCAACATCCAT (sugars k2 d8 e4 k2, PS)	0%	

Substance	target mRNA inhibition (IRF5; KARPAS-229, 4 µM)	other results
CCAATGCAACATCCAT (sugars k3 d9 k3 e1, PS)	16%	
CCAATGCAACATCCAT (sugars kkddddddddkekekk, PS)	0%	
CCAATTTTGCATTCCA (sugars k2 d9 e3 k2, PS)	30%	
CCAATTTTGCATTCCA (sugars k3 d9 k3 e1, PS)		target mRNA inhibition (IRF5; KARPAS-229, 0.44444 µM): 61% and 54% and 62%; target mRNA inhibition (IRF5; KARPAS-229, 1.33333 µM): 79% and 75% and 82%; target mRNA inhibition (IRF5; KARPAS-229, 12 µM): 88% and 91%
CCAATTTTGCATTCCA (sugars kkkddddddddkekek, PS)	42%	
CCATTCTATGCCTTTT (sugars k3 d10 k3, PS)	43%	
CCATTCTATGCCTTTT (sugars kkdddddddddkekek, PS)	62% and 61%	target mRNA inhibition (IRF5; KARPAS-229, 0.44444 µM): 29%; target mRNA inhibition (IRF5; KARPAS-229, 12 µM): 81%
CCCAATGCAACATCCA (sugars kkkdddddddddkeke, PS)	0%	
CCTTCTGCAGGGAGTC (sugars kddddddddddkekek, PS)	0%	
CCTTCTGCAGGGAGTC (sugars kdddddddddkekeke, PS)	0%	
CCTTCTGCAGGGAGTC (sugars kekdddddddddeekk, PS)	14%	
CCTTCTGCAGGGAGTC (sugars kkkddddddddkekek, PS)	0%	
CGGTCTTTGAGGTCTG (sugars kekdddddddddeekk, PS)	49%	
CGGTCTTTGAGGTCTG (sugars kkdddddddddkekek, PS)	44%	
CGGTCTTTGAGGTCTG (sugars kkkddddddddkdkdk, PS)	57%	
CTGATATGATACCTAA (sugars k3 d2 k1 d7 k3, PS)		target mRNA inhibition (IRF5; A-431, 0.00412 µM): 18%; target mRNA inhibition (IRF5; A-431, 0.01225 µM): 23%; target mRNA inhibition (IRF5; A-431, 0.03704 µM): 41%; target mRNA inhibition (IRF5; A-431, 0.11111 µM): 63%; target mRNA inhibition (IRF5; A-431, 0.33333 µM): 80%; target mRNA inhibition (IRF5; A-431, 1 µM): 75%
CTGATATGATACCTAA (sugars k3 d10 k3, PS)	59% and 76%	target mRNA inhibition (IRF5; A-431, 0.00412 µM): 13%; target mRNA inhibition (IRF5; A-431, 0.01225 µM): 29%; target mRNA inhibition (IRF5; A-431, 0.03704 µM): 54%; target mRNA inhibition (IRF5; A-431, 0.11111 µM): 80%; target mRNA inhibition (IRF5; A-431, 0.33333 µM): 88%; target mRNA inhibition (IRF5; A-431, 1 µM): 90%; target mRNA inhibition (IRF5; KARPAS-229, 0.44444 µM): 42%; target mRNA inhibition (IRF5; KARPAS-229, 1.33333 µM): 45%; target mRNA inhibition (IRF5; KARPAS-229, 12 µM): 77%
RNA1{[moe](T)[sp].[moe](T)[sp].[moe](T)[sp].[moe](A)[sp].d(T)[sp].d(G)[sp].d(C)[sp].d(C)[sp].d(T)[sp].d(A)[sp].d(C)[sp].d(A)[sp].d(G)[sp].[moe](C)[sp].[moe](C)[sp].[moe](T)[sp].[moe](C)}$$$$V2.0		target mRNA inhibition (HBV): 54% and 37%
RNA1{[moe](T)[sp].[moe](T)[sp].[moe](T)[sp].d(A)[sp].d(T)[sp].d(G)[sp].d(C)[sp].d(C)[sp].d(T)[sp].d(A)[sp].d(C)[sp].d(A)[sp].d(G)[sp].[cEt](C)[sp].[cEt](C)[sp].[cEt](T)}$$$$V2.0		target mRNA inhibition (HBV): 45% and 55%
RNA1{[moe](T)[sp].[moe](T)[sp].d(T)[sp].d(A)[sp].d(T)[sp].d(G)[sp].d(C)[sp].d(C)[sp].d(T)[sp].d(A)[sp].d(C)[sp].[moe](A)[sp].[moe](G)[sp].[moe](C)[sp].[moe](C)[sp].[moe](T)}$$$$V2.0		target mRNA inhibition (HBV): 46% and 47%
